Reference: patent US11149023B2, “Substituted triazole derivatives and uses thereof” (Bayer Pharma Aktiengesellschaft, priority 2017, dated 2021)

Assays:
[1] = molecular target: human V1a receptor (Homo sapiens (Human), UniProt P37288); experiment: Cellular in vitro assay for determining vasopressin receptor activity (V1a, aequorin luminescence); format: cell-based; conditions: for IC50: CHO cell line transfected with human V1a receptor, [Arg8]-vasopressin at EC50 concentration, read-out: IC50 hV1a; for ratio IC50 hV2/hV1a: selectivity, IC50 hV2 divided by IC50 hV1a
Description: (§1) B-1. Cellular In Vitro Assay for Determining Vasopressin Receptor Activity
(§2) The identification of agonists and antagonists of the V1a and V2 vasopressin receptors from humans, rats and dogs as well as the quantification of the activity of the compounds of the invention is carried out using recombinant cell lines. These cell lines originally derive from a hamster's ovary epithelial cell (Chinese Hamster Ovary, CHO K1, ATCC: American Type Culture Collection, Manassas, Va. 20108, USA). The test cell lines constitutively express the human, rat or dog V1a or V2 receptors. In case of the Gαq-coupled V1a receptors, cells are also stably transfected with a modified form of the calcium-sensitive photoproteins aequorin (human and rat V1a) or obe-lin (dog V1a), which, after reconstitution with the cofactor coelenterazine, emit light when there are increases in free calcium concentrations [Rizzuto R, Simpson A W, Brini M, Pozzan T, Nature 358, 325-327 (1992); Illarionov B A, Bondar V S, Illarionova V A, Vysotski E S, Gene 153 (2), 273-274 (1995)]. The resulting vasopressin receptor cells react to stimulation of the recombinantly expressed Via receptors by intracellular release of calcium ions, which can be quantified by the resulting photoprotein luminescence. The Gs-coupled V2 receptors are stably transfected into cell lines expressing the gene for firefly luciferase under control of a CRE-responsible promoter. Activation of V2 receptors induces the activation of the CRE-responsive promoter via cAMP increase, thereby inducing the expression of firefly luciferase. The light emitted by photoproteins of V1a cell lines as well as the light emitted by firefly luciferase of V2 cell lines corresponds to the activation or inhibition of the respective vasopressin receptor. The bioluminescence of the cell lines is detected using a suitable luminometer [Milligan G, Marshall F, Rees S, Trends in Pharmacological Sciences 17, 235-237 (1996)].
Vasopressin V1a Receptor Cell Lines:
On the day before the assay, the cells are plated out in culture medium (DMEM/F12, 2% FCS, 2 mM glutamine, 10 mM HEPES, 5 μg/ml coelenterazine) in 384-well microtiter plates and kept in a cell incubator (96% humidity, 5% v/v CO2, 37° C.). On the day of the assay, test compounds in various concentrations are placed for 10 minutes in the wells of the microtiter plate before the agonist [Arg^8]-vasopressin at EC50 concentration is added. The resulting light signal is measured immediately in a luminometer.
(§3) Table 1A below lists individual IC50 values for the compounds of the invention (including racemic mixtures as well as separated enantiomers) that were obtained from cell lines transfected with the human Via or V2 receptor: […]

[2] = molecular target: human V2 receptor (Homo sapiens (Human), UniProt P30518); experiment: Cellular in vitro assay for determining vasopressin receptor activity (V2, CRE-luciferase); format: cell-based; conditions: CHO cell line transfected with human V2 receptor; [Arg8]-vasopressin at EC50 concentration; read-out: IC50 hV2
Description: as §1, §2
Vasopressin V2 Receptor Cell Lines:
On the day before the assay, the cells are plated out in culture medium (DMEM/F12, 2% FCS, 2 mM glutamine, 10 mM HEPES) in 384-well microtiter plates and kept in a cell incubator (96% humidity, 5% v/v CO2, 37° C.). On the day of the assay, test compounds in various concentrations and the agonist [Arg^8]-vasopressin at EC50 concentration are added together to the wells, and plates are incubated for 3 hours in a cell incubator. Upon addition of the cell lysis reagent Triton™ and the substrate luciferin, luminescence of firefly luciferase is measured in a luminometer.
as §3

Sequence of human V2 receptor (P30518 whole entry): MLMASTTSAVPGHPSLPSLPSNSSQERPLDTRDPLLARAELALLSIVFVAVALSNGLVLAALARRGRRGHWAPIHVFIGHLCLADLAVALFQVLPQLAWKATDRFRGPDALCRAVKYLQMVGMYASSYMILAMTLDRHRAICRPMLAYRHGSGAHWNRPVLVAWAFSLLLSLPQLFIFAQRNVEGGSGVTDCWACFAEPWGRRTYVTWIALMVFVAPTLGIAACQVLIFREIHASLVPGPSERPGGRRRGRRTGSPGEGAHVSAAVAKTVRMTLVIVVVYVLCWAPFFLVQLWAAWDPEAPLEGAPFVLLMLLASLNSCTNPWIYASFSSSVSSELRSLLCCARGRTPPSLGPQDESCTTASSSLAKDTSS
Sequence of human V1a receptor (P37288 whole entry): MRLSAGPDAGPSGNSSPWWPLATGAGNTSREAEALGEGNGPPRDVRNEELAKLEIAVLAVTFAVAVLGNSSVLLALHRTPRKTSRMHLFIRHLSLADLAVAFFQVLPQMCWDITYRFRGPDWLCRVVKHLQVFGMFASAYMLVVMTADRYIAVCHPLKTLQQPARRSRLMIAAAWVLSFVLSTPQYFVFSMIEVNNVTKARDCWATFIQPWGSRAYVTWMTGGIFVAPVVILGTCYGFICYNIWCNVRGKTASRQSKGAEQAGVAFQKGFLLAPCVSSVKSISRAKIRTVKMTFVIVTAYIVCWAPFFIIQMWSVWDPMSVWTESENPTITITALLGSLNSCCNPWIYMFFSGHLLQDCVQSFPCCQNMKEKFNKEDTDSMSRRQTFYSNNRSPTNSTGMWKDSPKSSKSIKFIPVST

SMILES	IC50 [1] [nM]	ratio IC50 hV2/hV1a [1]	IC50 [2] [nM]
CCC(=O)NC(Cn1c(-c2ccc(Cl)cc2)nn(Cc2ncn(-c3ncccc3Cl)n2)c1=O)C(F)(F)F (racemic) [Example 13, N-{3-[3-(4-Chlorophenyl)-1-{[1-(3-chloropyridin-2-yl)-1H-1,2,4-triazol-3-yl]methyl}-5-oxo-1,5-dihydro-4H-1,2,4-triazol-4-yl]-1,1,1-trifluoropropan-2-yl}propanamide]	6.95	37.4	260
O=C(NC(Cn1c(-c2ccc(Cl)cc2)nn(Cc2ncn(-c3ncccc3Cl)n2)c1=O)C(F)(F)F)C1CC1 (racemic) [Example 14, N-{3-[3-(4-Chlorophenyl)-1-{[1-(3-chloropyridin-2-yl)-1H-1,2,4-triazol-3-yl]methyl}-5-oxo-1,5-dihydro-4H-1,2,4-triazol-4-yl]-1,1,1-trifluoropropan-2-yl}cyclopropanecarboxamide]	12.4	17.7	220
O=C(NC(Cn1c(-c2ccc(Cl)cc2)nn(Cc2ncn(-c3ncccc3Cl)n2)c1=O)C(F)(F)F)C1CC(F)(F)C1 (racemic) [Example 15, N-{3-[3-(4-Chlorophenyl)-1-{[1-(3-chloropyridin-2-yl)-1H-1,2,4-triazol-3-yl]methyl}-5-oxo-1,5-dihydro-4H-1,2,4-triazol-4-yl]-1,1,1-trifluoropropan-2-yl}-3,3-difluorocyclobutanecarboxamide]	2.05	38.3	78.5
CC(=O)OC(C)(C)C(=O)NC(Cn1c(-c2ccc(Cl)cc2)nn(Cc2ncn(-c3ncccc3Cl)n2)c1=O)C(F)(F)F (racemic) [Example 16, 1-({3-[3-(4-Chlorophenyl)-1-{[1-(3-chloropyridin-2-yl)-1H-1,2,4-triazol-3-yl]methyl}-5-oxo-1,5-dihydro-4H-1,2,4-triazol-4-yl]-1,1,1-trifluoropropan-2-yl}amino)-2-methyl-1-oxopropan-2-yl acetate]	5.05	27.7	140
CC(C)(O)C(=O)NC(Cn1c(-c2ccc(Cl)cc2)nn(Cc2ncn(-c3ncccc3Cl)n2)c1=O)C(F)(F)F (racemic) [Example 17, N-{3-[3-(4-Chlorophenyl)-1-{[1-(3-chloropyridin-2-yl)-1H-1,2,4-triazol-3-yl]methyl}-5-oxo-1,5-dihydro-4H-1,2,4-triazol-4-yl]-1,1,1-trifluoropropan-2-yl}-2-hydroxy-2-methylpropanamide]	9.55	29.3	280
CS(=O)(=O)NCC(=O)NC(Cn1c(-c2ccc(Cl)cc2)nn(Cc2ncn(-c3ncccc3Cl)n2)c1=O)C(F)(F)F (racemic) [Example 19, N-{3-[3-(4-Chlorophenyl)-1-{[1-(3-chloropyridin-2-yl)-1H-1,2,4-triazol-3-yl]methyl}-5-oxo-1,5-dihydro-4H-1,2,4-triazol-4-yl]-1,1,1-trifluoropropan-2-yl}-N^2-(methylsulfonyl)glycinamide]	2.2	46.1	102
O=C(CN1CCOC1=O)NC(Cn1c(-c2ccc(Cl)cc2)nn(Cc2ncn(-c3ncccc3Cl)n2)c1=O)C(F)(F)F (racemic) [Example 20, N-{3-[3-(4-Chlorophenyl)-1-{[1-(3-chloropyridin-2-yl)-1H-1,2,4-triazol-3-yl]methyl}-5-oxo-1,5-dihydro-4H-1,2,4-triazol-4-yl]-1,1,1-trifluoropropan-2-yl}-2-(2-oxo-1,3-oxazolidin-3-yl)acetamide]	8.9	58.4	520
N#CC1(C(=O)NC(Cn2c(-c3ccc(Cl)cc3)nn(Cc3ncn(-c4ncccc4Cl)n3)c2=O)C(F)(F)F)CC1 (racemic) [Example 21]	5.95	47.5	283
O=C(NC(Cn1c(-c2ccc(Cl)cc2)nn(Cc2ncn(-c3ncccc3Cl)n2)c1=O)C(F)(F)F)C1(O)CC1 (racemic) [Example 22, N-{3-[3-(4-Chlorophenyl)-1-{[1-(3-chloropyridin-2-yl)-1H-1,2,4-triazol-3-yl]methyl}-5-oxo-1,5-dihydro-4H-1,2,4-triazol-4-yl]-1,1,1-trifluoropropan-2-yl}-1-hydroxycyclopropanecarboxamide]	4.05	37.0	150
O=C(/C=C/C(F)(F)F)NC(Cn1c(-c2ccc(Cl)cc2)nn(Cc2ncn(-c3ncccc3Cl)n2)c1=O)C(F)(F)F (racemic) [Example 25, (2E)-N-{3-[3-(4-Chlorophenyl)-1-{[1-(3-chloropyridin-2-yl)-1H-1,2,4-triazol-3-yl]methyl}-5-oxo-1,5-dihydro-4H-1,2,4-triazol-4-yl]-1,1,1-trifluoropropan-2-yl}-4,4,4-trifluorobut-2-enamide]	1.75	98.6	172
CC(C)(C)OC(=O)NC1(C(=O)NC(Cn2c(-c3ccc(Cl)cc3)nn(Cc3ncn(-c4ncccc4Cl)n3)c2=O)C(F)(F)F)CC1 (racemic) [Example 26, tert-Butyl [1-({3-[3-(4-chlorophenyl)-1-{[1-(3-chloropyridin-2-yl)-1H-1,2,4-triazol-3-yl]methyl}-5-oxo-1,5-dihydro-4H-1,2,4-triazol-4-yl]-1,1,1-trifluoropropan-2-yl}carbamoyl)cyclopropyl]-carbamate]	9.15	9.0	82.5
NC1(C(=O)NC(Cn2c(-c3ccc(Cl)cc3)nn(Cc3ncn(-c4ncccc4Cl)n3)c2=O)C(F)(F)F)CC1 (racemic) [Example 27, 1-Amino-N-{3-[3-(4-chlorophenyl)-1-{[1-(3-chloropyridin-2-yl)-1H-1,2,4-triazol-3-yl]methyl}-5-oxo-1,5-dihydro-4H-1,2,4-triazol-4-yl]-1,1,1-trifluoropropan-2-yl}cyclopropanecarboxamide]	215	8.8	1900
NC1(C(=O)NC(Cn2c(-c3ccc(Cl)cc3)nn(Cc3ncn(-c4ncccc4Cl)n3)c2=O)C(F)(F)F)CCC1 (racemic) [Example 29, 1-Amino-N-{3-[3-(4-chlorophenyl)-1-{[1-(3-chloropyridin-2-yl)-1H-1,2,4-triazol-3-yl]methyl}-5-oxo-1,5-dihydro-4H-1,2,4-triazol-4-yl]-1,1,1-trifluoropropan-2-yl}cyclobutanecarboxamide]	5.65	36.0	203
O=C(CC(F)=C(F)F)NC(Cn1c(-c2ccc(Cl)cc2)nn(Cc2ncn(-c3ncccc3Cl)n2)c1=O)C(F)(F)F (racemic) [Example 31, N-{3-[3-(4-Chlorophenyl)-1-{[1-(3-chloropyridin-2-yl)-1H-1,2,4-triazol-3-yl]methyl}-5-oxo-1,5-dihydro-4H-1,2,4-triazol-4-yl]-1,1,1-trifluoropropan-2-yl}-3,4,4-trifluorobut-3-enamide]	3.4	32.1	109
O=C(CCC(F)(F)F)NC(Cn1c(-c2ccc(Cl)cc2)nn(Cc2ncn(-c3ncccc3Cl)n2)c1=O)C(F)(F)F (racemic) [Example 32, N-{3-[3-(4-Chlorophenyl)-1-{[1-(3-chloropyridin-2-yl)-1H-1,2,4-triazol-3-yl]methyl}-5-oxo-1,5-dihydro-4H-1,2,4-triazol-4-yl]-1,1,1-trifluoropropan-2-yl}-4,4,4-trifluorobutanamide]	1.17	67.0	78.2
O=C(NC(Cn1c(-c2ccc(Cl)cc2)nn(Cc2ncn(-c3ncccc3Cl)n2)c1=O)C(F)(F)F)C1CS(=O)(=O)C1 (racemic) [Example 38, N-{3-[3-(4-Chlorophenyl)-1-{[1-(3-chloropyridin-2-yl)-1H-1,2,4-triazol-3-yl]methyl}-5-oxo-1,5-dihydro-4H-1,2,4-triazol-4-yl]-1,1,1-trifluoropropan-2-yl}thietane-3-carboxamide 1,1-dioxide]	1.7	28.2	48
